Entries after “also recorded” stand apart in the source; their conditions may differ.

In one assay the test system is wheat. As to the kind of experiment: Root and shoot growth of wheat. The class given is in vivo. The conditions noted are these: 100 nM TaREF1 vs absence. An excerpt: (a) photos of wheat grown in the presence of 100 nm TaREF1, or in the absence of TaREF1 (mock). (b) primary root length in wheat grown in the presence of 100 nm TaREF1, or in the absence of TaREF1 (mock). (c) shoot length of wheat grown in the presence of 100 nm TaREF1, or in the absence of TaREF1 (mock).
The wheat SIPEP (REF1) orthologue (TaREF1) was investigated to establish whether REF1 can increase the regenerative capacity in wheat.

Assay [1] has as its system Chinese Spring and JM22 wheat. As to the kind of experiment: Callus formation of wheat immature embryos on CIM. Conditions: exogenous TaREF1. It counts as cell-based. The method, then:
(a) photos of Chinese Spring wheat grown in the presence or 0 nM, 0.01 nM or 0.1 nM TaREF1. (b) immature embryos of Chinese Spring were cultured on CIM containing indicated concentrations of TaREF1, and callus phenotype was scored at 14 days after incubation on CIM. Callus formation capacity was represented by the percentage of immature embryo explants with regenerated embryonic calli. Data are mean±SD of three independent experiments.
(§1) TaREF1 was also shown to increase the callus formation capacity of Chinese spring wheat when applied exogenously (FIG. 43) and JM22 wheat (FIG. 54).

For assay [2], the system named is Chinese Spring, Kn199 and JM22 wheat. In words: Shoot regeneration of wheat. The class given is cell-based. As to the method: (a) photos of Kn199 wheat grown in the presence of 0.01 nM or 1 nM TaREF1 or absence of TaREF1 (mock). (b) photos of Kn199 wheat grown in the presence of 0.01 nM or 1 nM TaREF1 or absence of TaREF1.
as §1
Shoot regeneration frequency was established by calculating the average number of shoots, in the context of the present invention shoot regenerative capacity refers to the number of shoots per explant in each condition.

For the next assay, the system named is mature seeds of ZH11. As to the kind of experiment: Callus formation of rice mature seeds on CIM. The class given is cell-based, Oryza sativa. The conditions noted are these: for callus formation capacity, increase: 20 days. As to the method: Mature seeds of ZH11 were cultured on CIM containing indicated concentrations of OsREF1. (a) photos of ZH11 grown in presence of 1 nM and 10 nM OsREF1 or in the absence of OsREF1 (mock). (b) callus phenotype was scored 20 days after incubation on CIM. Callus formation capacity was represented by the percentage of mature seed explants with regenerated embryonic calli. Data are mean±SD of three independent experiments.
Mature seeds of ZH11 were cultured on CIM containing indicated concentrations of OsREF1 (1 nM and 10 nM). As shown in FIG. 27A calluses formed that were larger in the presence of OsREF1 than in the absence of OsREF1.

The subject of assay [3] is ZH11, Nipponbare and 9311 rice. As to the kind of experiment: Shoot regeneration of rice on SIM. It counts as cell-based, Oryza sativa. Conditions: for shoot regeneration: SIM, 10 nM; for shoot regeneration capacity, increase: 10 nM OsREF1 vs absence. As to the method: ZH11 was cultured on SIM containing indicated concentrations of OsREF1. (a) photos of ZH11 grown in presence of 0 nM and 10 nM OsREF1. (b) shoot regeneration capacity of ZH11 grown in with either 0 nM or 10 nM OsREF1.
Nipponbare was cultured on SIM containing indicated concentrations of OsREF1. (a) photos of nipponbare grown in presence of 0 nM and 10 nM OsREF1. (b) shoot regeneration capacity of nipponbare grown in with either 0 nM or 10 nM OsREF1.
9311 rice was cultured on SIM containing indicated concentrations of OsREF1. (a) photos of 9311 rice grown in presence of 0 nM and 10 nM OsREF1. (b) shoot regeneration capacity of 9311 rice grown in with either 0 nM or 10 nM OsREF1.
Shoot regeneration was investigated in ZH11 and Nipponbare Japonica rice as well as 9311 indica rice. OsREF1 promoted shoot generation in all three of these rice varieties.

Assay [4] deals with seeds of wild allotetraploid rice L-04. As to the kind of experiment: Callus formation of wild allotetraploid rice seeds on CIM. The class given is cell-based. Conditions: for callus formation capacity, increase: vs absence. The method, then: L-04 rice was grown in the presence of 10 nM or 1 nM OsREF1 or in the absence of OsREF1 (mock). (a) photos of L-04 rice grown in presence the of 10 nM, 1 nM OsREF1 or absence of OsREF1 (mock). (b) callus formation capacity of L-04 rice grown in the presence of 10 nM, 1 nM OsREF1 or absence of OsREF1 (mock).
Seeds of wild allotetraploid rice L-04 were cultured on CIM containing indicated concentrations of OsREF1 (1 nM and 10 nM) for 20 days.

The subject of assay [5] is wild allotetraploid rice (L-04). In words: Growth (primary root length) of wild allotetraploid rice. It counts as in vivo. Conditions: L-04, 10 nM OsREF1 vs mock. As to the method: L-04 rice was grown in the presence of 10 nM OsREF1 or in the absence of OsREF1 (mock). (a) photos of L-04 rice grown in presence the of 10 nM OsREF1 or absence of OsREF1 (mock). (b) primary root length of L-04 rice grown in the presence of 10 nM OsREF1 or absence of OsREF1 (mock).

Assay [6] has the same test system. As to the kind of experiment: Shoot regeneration of wild allotetraploid rice. It counts as cell-based. The method, then:
(a) images of L-04 rice grown in the presence of 10 nM OsREF1 or absence of OsREF1 (mock). (b) regeneration frequency of L-04 rice grown in the presence of 10 nM OsREF1 or absence of OsREF1.

For assay [7], the system named is leaves of peach cultivar GF677. As to the kind of experiment: Callus formation of peach leaves on CIM. The class given is cell-based. As to the method: (a) photos of peach cultivar GF677 grown on a CIM in the presence of 100 nM PpREF1 and in the absence of PpREF1 (mock). (b) callus formation capacity of peach cultivar […] grown on a CIM in the presence 100 nM PpREF1 and in the absence of PpREF1 (mock) after 24 days. Callus formation capacity was represented by the percentage of leaves explants with regenerated embryonic calli. Data are mean±SD of three independent experiments.
Leaves of peach cultivar GF677 were cultured on CIM containing indicated concentrations of PpREF1, and callus phenotype was scored at 24 days after incubation on CIM. Callus formation capacity was represented by the percentage of leaves explants with regenerated embryonic calli. Data are mean±SD of three independent experiments. Callus formation capacity was increased by 10-fold in peach cultivar GF677 leaves grown in the presence of 100 nM PpREF1 compared to leaves grown in the absence of PpREF1.

The test system of assay [8] is hypocotyl explants of cotton. As to the kind of experiment: Callus formation of cotton hypocotyl explants on CIM. The class given is cell-based. As to the method: (a) photos of cotton grown in the presence of 0.1 nM, 1 nM 10 nM, 100 nM 500 nM GaREF1 or absence of GaREF1 (mock), (b) Hypocotyl explants of cotton were cultured on callus-inducing medium (CIM) containing indicated concentrations of GaREF1, and callus phenotype was scored at 14 days after incubation. Box plots represent the distribution of projected callus area. The projected area of callus was quantified by Image J. Individual values (black dots) are shown and error bars represent SD from three independent experiments. ***P<0.001, **P<0.01, *P<0.05 (Student's t-test).
The cotton SIPEP (REF1) orthologue (GaREF1) was investigated to establish its effect on cotton regenerative capacity.

The next assay concerns sunflower explants. In words: Shoot regeneration of sunflower cotyledon explants. It counts as cell-based. As to the method: (A) The shoot regenerative capacity was represented by the relative frequency of explants with the regenerated shoots. (B) The shoot regenerative capacity was represented by the number of explants with different number of regenerated shoots. Bars show mean±SD. ***P<0.001, **P<0.01, *P<0.05 (Student's t-test). (C) photos of sunflower plants grown in the presence of 1 nM HaREF1, 10 nM HaREF1 or absence of HaREF1 (mock).
The sunflower SIPEP (REF1) orthologue (HanREF1) was investigated to establish its effect on sunflower regenerative capacity.
For the regeneration protocol we referred to Radonic et al., 2015. The explant used in the sunflower regeneration assay was cotyledon.
Shoot regeneration frequency was established by calculating the average number of shoots, in the context of the present invention shoot regenerative capacity refers to the number of shoots per explant in each treatment.

In assay [9] the test system is young embryos of B104 and Chang 7-2. As to the kind of experiment: Shoot regeneration of maize young embryos. The class given is cell-based. As to the method: Young embryos of B104 and Chang 7-2 were treated with 0, 0.1 or 1 nM of ZmREF1. For both B-104 and Chan 7-2 shoot regeneration frequency was increased when ZmREF1 was applied, for B-104 this was greatest at 1 nM, however, for Chan 7-2 this was greatest at 0.1 nM, as shown in FIG. 52.

For “AVRRPRPPGNPREGRGGGGGSHN (listed as Triticum aestivum) [TaREF1]”, the root length result in the assay with wheat is “increased; also recorded: promotes root and shoot growth”. The shoot length result in the assay on wheat is “increased; also recorded: promotes root and shoot growth”. For the same sequence, the values for the callus formation capacity in assay [1] (Chinese spring wheat) and in [1] (JM22 wheat) were “increase” and “increase; also recorded: promotes callus formation”, respectively. Moreover, the shoot regeneration result in assay [2] (Chinese Spring wheat), in assay [2] (JM22 wheat) and in assay [2] (Kn199 wheat) was “promotes shoot regeneration” in each case.
For “DDSKPTGPGAPAEGSGGDGGAIH (listed as Oryza sativa) [OsREF1]”, the “callus formation capacity, increase” value with mature seeds of ZH11 (ZH11, 1 nM OsREF1 vs absence) was ~ 2 fold; with mature seeds of ZH11 (ZH11, 10 nM OsREF1 vs absence) it was ~ 3 fold; in assay [4] (L-04, 1 nM OsREF1, 20 days) it was ~ 7.4 fold; in assay [4] (L-04, 10 nM OsREF1, 20 days) it was ~ 8.9 fold. The callus formation is reported as “larger; also recorded: promotes callus formation” in the assay with mature seeds of ZH11 (ZH11 Japonica rice, presence vs absence of OsREF1) and “promotes callus formation” in [4] (L-04, 1 or 10 nM OsREF1 vs mock). For the same sequence, the shoot regeneration result in [3] (9311 indica rice) was “promotes shoot regeneration”; in assay [3] (Nipponbare Japonica rice), “promotes shoot regeneration”; in assay [3] (ZH11 Japonica rice) it was “promotes shoot regeneration”; in assay [6] (L-04, 10 nM OsREF1 vs mock), “promotes shoot regeneration”. The “shoot regeneration capacity, increase” value is recorded as ~ 3.5 fold in assay [3] (9311 rice), ~ 4 fold in assay [3] (Nipponbare rice) and ~ 4 fold in [3] (ZH11 rice). For the same sequence, the growth entry in assay [5] was “promotes the growth”. Moreover, in assay [5], the primary root length entry is given as “significantly increased”. Besides, the “shoot regeneration frequency, increase” value in [6] (L-04, 10 nM OsREF1 vs absence) was ~ 12.2 fold.
In the case of “KRPRITLRAARPEISTGSGAQTN (listed as Prunus persica) [PpREF1]”, the callus formation in [7] (GF677, 100 nM PpREF1 vs mock) was “promotes callus formation”. The “callus formation capacity, increase” value in [7] (GF677 leaves, 100 nM PpREF1 vs absence, 24 days) came out at 10 fold.
Turning to “LPMVSLFTPKRPGTSAGSGPQIN (listed as Gossypium arboreum) [GaREF1]”, the “relative callus area, concentration dependence” value in [8] (0.1-500 nM GaREF1) is reported as “increasing as concentration of GaREF1 is increased”. For the same sequence, the “relative callus area / callus formation” value in assay [8] (presence vs absence of GaREF1, 14 days) is given as “increased; also recorded: promotes callus formation”.
With “RRLTRRPPPPRGPISSGGGGQTN (listed as Helianthus annuus) [HanREF1]”, the “shoot regeneration, increase” value with sunflower explants (1 nM HanREF1 vs absence) was ~ 2.1 fold; in the assay with sunflower explants (10 nM HanREF1 vs absence), ~ 4.5 fold. The shoot regeneration result in the assay on sunflower explants (1 or 10 nM vs mock) is on record as “promotes shoot regeneration”.
As to “RRPRPRPPDHAREGSGGNGGVHH (Zea mays) [ZmREF1]”, the “concentration with greatest shoot regeneration frequency” value is 1 nM in [9] (B-104) and 0.1 nM in [9] (Chan 7-2). Moreover, in [9] (B-104 and Chan 7-2, 0.1 or 1 nM ZmREF1 vs 0), the shoot regeneration frequency entry is reported as “increased; also recorded: promotes shoot regeneration”.

(Values after patent US20260265771A1, “METHODS OF INCREASING THE REGENERATION EFFICIENCY IN PLANTS” (Institute of Genetics and Developmental Biology Chinese …, priority 2022, published 2026).)
